Experimental data: publication PMC6568410, “A scorpion venom peptide derivative BmKn‒22 with potent antibiofilm activity against Pseudomonas aeruginosa” (PLoS ONE, 2019)
Where no end group is shown, it is not given here.

Columns and labels:
P. aeruginosa PAO1 = assay: Growth assay, standard plate counts; format: cell-based, Pseudomonas aeruginosa; conditions: 800 µM, 24 h
Experimental: The effects of BmKn‒2 peptide and its derivatives on growth of P. aeruginosa PAO1 were carried out as described previously with some modifications. Bacterial suspension (10^6 CFU/mL) and the test peptides (800 μM, final concentration) were incubated at 37 ^OC at 150 rpm. Bacterial culture without the test peptides was used as the untreated control. After 24 h, bacterial concentration was evaluated. Cultures from each treatment were taken and 10-fold serial dilution was performed; 100 μL of each dilution was then spread on LB agar plates. Following incubation at 37°C for 24 h, the colonies were counted and expressed as log10 CFU/mL.

lasI mRNA = assay: qRT-PCR of quorum sensing-related gene lasI; format: cell-based, Pseudomonas aeruginosa; conditions: 800 µM, 10 h
Experimental: (§1) The effects of BmKn‒22 peptide on the expression of quorum sensing‒related genes in P. aeruginosa PAO1 were assessed by qPCR. Briefly, bacterial suspension at approximately 10^7 CFU/mL was cultured in the presence or absence of the test peptide (800 μM, final concentration) at 37 ^OC for 10 h using a shaking incubator. After centrifugation at 4,500 rpm for 10 minutes, the bacterial cells were harvested and subsequently subjected to total RNA extraction using TRIzol® reagent (Invitrogen, USA) as per the manufacturer’s instruction. The concentration of the extracted RNA was measured using Nanodrop spectrophotometer (NanoDrop Technologies, USA). Thereafter, 1 μg of extracted RNA was reverse-transcribed into cDNA using Random Hexamer primer and RevertAid First Strand cDNA synthesis kit (Fermantas), which was amplified by real-time PCR. The primers for the genes lasI, lasR, RhlI, RhlR and 16S rRNA were used (Table 2). All primers were synthesized by the Integrated DNA Technology (IDT), Canada. The reaction mixture consisted of 1× AccuPower® 2X GreenStar™ qPCR Master Mix, 0.4 μmol/L each forward primer and reverse primer and 1 μL of cDNA in a final volume of 10 μL. Thermal cycles used was 95 ^OC for 2.5 min, followed by 40 cycles of 95 ^OC for 30 sec, 60 ^OC for 30 sec and 72 ^OC for 30 sec. The expression level of the target gene was normalized to 16S rRNA gene. Relative expression of the target genes was obtained from 2^‒ΔΔct.

lasR mRNA = assay: qRT-PCR of quorum sensing-related gene lasR; format: cell-based, Pseudomonas aeruginosa; conditions: 800 µM, 10 h
Experimental: as §1

rhlR mRNA = assay: qRT-PCR of quorum sensing-related gene rhlR; format: cell-based, Pseudomonas aeruginosa; conditions: 800 µM, 10 h
Experimental: as §1

[1] = system: pyocyanin production of P. aeruginosa PAO1; assay: Pyocyanin assay, chloroform extraction; format: cell-based, Pseudomonas aeruginosa
Experimental: Pyocyanin pigments produced by P. aeruginosa PAO1 after exposure to the BmKn‒22 peptide were determined according to the protocol described previously. Briefly, 750 μL of P. aeruginosa suspension (10^7 CFU/mL, final concentration) was mixed with 250 μL of LB broth containing the test peptide at final concentrations of 200 ‒ 800 μM and incubated at 37 ^OC for 24 hours with agitation (150 rpm). Control culture without the test peptide was simultaneously propagated. After centrifugation at 4,500 rpm for 10 minutes, supernatant was collected and pyocyanin was extracted with chloroform followed by 0.2 N HCl. The suspension was centrifuged once at 4,500 rpm for 10 minutes, and the pink phase layer was subjected to optical density determination at […] using a microplate reader (BioTek Synergy HT).

[2] = system: P. aeruginosa PAO1 established biofilms; assay: Established (24 h-preformed) biofilm assay, crystal violet staining; format: cell-based, Pseudomonas aeruginosa
Experimental: Antibiofilm activity of the test peptides was also examined against established biofilms as follows. Aliquots of the P. aeruginosa PAO1 suspension adjusted to a final concentration of 10^6 CFU/mL were seeded into the wells of flat-bottomed 96-well microtiter plates (Nunc). Biofilms were established at 37°C for 24 h. After incubation, nonadherent planktonic cells were removed by gently washing the wells with sterile PBS pH 7.4. Preformed biofilms were then treated with the test peptides at concentrations of 200 ‒ 800 μM and incubated at 37°C for 24 h. Culture without the test peptides served as the untreated control. After the incubation, the test peptides were aspirated gently and the plates were rinsed twice with PBS pH 7.4. Biofilm biomass was subsequently quantified by 0.1% crystal violet staining as previously described.

sheep red blood cells = assay: Hemolytic assay; format: cell-based; conditions: 800 µM, 37 °C, 1 h
Experimental: Hemolytic activity of the test peptides was assayed according to a protocol described previously. Suspension of 2% sheep red blood cells (100 μL) prepared in PBS pH 7.4 was incubated with 100 μL of the test peptides (800 μM, final concentration). After incubation at 37 ^OC for 1 h, the suspension was centrifuged at 1,000 g for 5 min followed by transferring 100 μL of the supernatant to 96 well-microtiter plate (Nunc). Released hemoglobin was then determined by measuring an absorbance at 405 nm using a microplate reader (BioTek Synergy HT). Positive and negative controls in this assay were 1% Triton X-100 and PBS pH 7.4, respectively. Hemolysis (%) was calculated using an equation: (OD405 nm peptide ‒ OD405 nm PBS pH 7.4)/(OD405 nm 1% Triton X-100 ‒ OD405 nm PBS pH 7.4) × 100.

[3] = normalized to 16S rRNA, 2^-ΔΔct, untreated control = 1, mean of 2 independent experiments in quadruplicate

## FIGAIARLLSK [BmKn-22]
P. aeruginosa PAO1; 37 °C, 150 rpm, plate counts, untreated control 9.183, mean of 3 independent experiments
  Bacterial growth, Log10 CFU/mL: 9.323 Log10 CFU/mL
P. aeruginosa PAO1; compared with untreated control, result in words
  effect on bacterial counts (growth): no significant (P > 0.05) differences in bacterial counts
P. aeruginosa PAO1; Exp. 1 (untreated control 9.082)
  Bacterial growth, Log10 CFU/mL: 9.235 Log10 CFU/mL
P. aeruginosa PAO1; Exp. 2 (untreated control 9.198)
  Bacterial growth, Log10 CFU/mL: 9.292 Log10 CFU/mL
P. aeruginosa PAO1; Exp. 3 (untreated control 9.268)
  Bacterial growth, Log10 CFU/mL: 9.443 Log10 CFU/mL
lasI mRNA; [3]
  Relative mRNA expression, lasI: 0.403
lasI mRNA; Exp. 1
  Relative mRNA expression, lasI: 0.314
lasI mRNA; Exp. 2
  Relative mRNA expression, lasI: 0.491
lasI mRNA; result in words
  mRNA expression of lasI: significantly (P < 0.05) decreased
lasR mRNA; [3]
  Relative mRNA expression, lasR: 0.949
lasR mRNA; Exp. 1
  Relative mRNA expression, lasR: 0.732
lasR mRNA; Exp. 2
  Relative mRNA expression, lasR: 1.166
lasR mRNA; result in words
  mRNA expression of lasR: no alteration
rhlR mRNA; [3]
  Relative mRNA expression, rhlR: 0.511
rhlR mRNA; Exp. 1
  Relative mRNA expression, rhlR: 0.408
rhlR mRNA; Exp. 2
  Relative mRNA expression, rhlR: 0.614
rhlR mRNA; result in words
  mRNA expression of rhlR: significantly (P < 0.05) decreased
[1]; 200 µM, 37 °C, 24 h, 150 rpm, OD 380 nm, mean of 3 independent experiments
  Pyocyanin production (% control): 47.395 % control
[1]; 200 µM, Exp. 1
  Pyocyanin production (% control): 62.849 % control
[1]; 200 µM, Exp. 2
  Pyocyanin production (% control): 40.419 % control
[1]; 200 µM, Exp. 3
  Pyocyanin production (% control): 38.918 % control
[1]; 400 µM, 37 °C, 24 h, 150 rpm, OD 380 nm, mean of 3 independent experiments
  Pyocyanin production (% control): 48.157 % control
[1]; 400 µM, Exp. 1
  Pyocyanin production (% control): 59.310 % control
[1]; 400 µM, Exp. 2
  Pyocyanin production (% control): 37.273 % control
[1]; 400 µM, Exp. 3
  Pyocyanin production (% control): 47.889 % control
[1]; 800 µM, 37 °C, 24 h, 150 rpm, OD 380 nm, mean of 3 independent experiments
  Pyocyanin production (% control): 60.164 % control
[1]; 800 µM, Exp. 1
  Pyocyanin production (% control): 68.994 % control
[1]; 800 µM, Exp. 2
  Pyocyanin production (% control): 42.898 % control
[1]; 800 µM, Exp. 3
  Pyocyanin production (% control): 68.601 % control
[2]; 200 µM, Exp. 1
  Biofilm inhibition (%), preformed biofilm: 30.458%
[2]; 200 µM, Exp. 2
  Biofilm inhibition (%), preformed biofilm: 17.360%
[2]; 200 µM, Exp. 3
  Biofilm inhibition (%), preformed biofilm: 22.328%
[2]; 400 µM, Exp. 1
  Biofilm inhibition (%), preformed biofilm: 27.005%
[2]; 400 µM, Exp. 2
  Biofilm inhibition (%), preformed biofilm: 32.202%
[2]; 400 µM, Exp. 3
  Biofilm inhibition (%), preformed biofilm: 27.300%
[2]; 800 µM, Exp. 1
  Biofilm inhibition (%), preformed biofilm: 44.831%
[2]; 800 µM, Exp. 2
  Biofilm inhibition (%), preformed biofilm: 34.141%
[2]; 800 µM, Exp. 3
  Biofilm inhibition (%), preformed biofilm: 53.943%
Sheep red blood cells
  lysis of red blood cells: less or no hemolysis
